Results taken from US6197944A, “DNA molecules stabilized by modifications of the 3'-terminal phosphodiester linkage” (Integrated DNA Technologies, Inc., priority 1994, dated 2001).

What was measured:
[1] = test system: mouse globin mRNA (MA-15: mouse α-globin mRNA; CODMB-25: mouse β-globin mRNA); test: In vitro translation of globin mRNA in rabbit reticulocyte lysate (hybrid-arrested translation, role of RNaseH); assay type: biochemical; settings: for inhibition of translation of the targeted mRNA: in words; for % Inhibition Of Globin Synthesis, +poly rA/oligo dT: with poly rA/oligo dT 500 ug/ml (RNaseH inhibitor); for % Inhibition Of Globin Synthesis, +poly rA/oligo dT / % Inhibition Of Globin Synthesis, -poly rA/oligo dT: CODMB-25 4 uM, 1 hour at 30° C.; for % Inhibition Of Globin Synthesis, -poly rA/oligo dT: without poly rA/oligo dT
Description: (§1) For the purpose of these experiments two oligonucleotides were synthesized: 5'-GAGCACCATGGTTTC, MA-15; and 5'-[…],(SEQ ID NO:2) CODMB-25. Both were prepared on a Beckman automated DNA synthesizer using the phophoramidite method. MA-15 is complementary to a sequence within mouse α-globin mRNA spanning the initiation codon. CODMB-25 hybridizes to a sequence within the coding region of mouse β-globin mRNA. Mouse globin mRNA was isolated from reticulocytes obtained from mice rendered anemic by treatment with phenylhydrazine as described by Goosens and Kan (Methods in Enzymology (Antonini, E., Rossi-Bernadi, L., and Chiancone, E., eds.) 76, 805-817, 1981). In vitro translation reactions were carried out in the rabbit reticulocyte lysate system. The reticylocyte lysates used were purchased from ProMega Biotec, and contain RNaseH. Translation reactions were programmed with 1 ug of total mouse reticulocyte RNA. The reactions were allowed to proceed for 1 hour at 30° C. Each sample contained 45 uCi of [^35 S]methionine (Amersham) in a total volume of 25 ul. Protein synthesis was measured by incorporation of [^35 S]methionine into material precipitatable in 10% trichloracetic acid. In control reactions in the absence of oligonucleotide, synthesis of β globin accounts for 60% of the incorporated counts; α globin synthesis accounts for 40% of the radioactivity incorporated into protein. Reactions were carried out in both the presence and absence of poly rA/oligo dT (500 ug/ml).

[2] = test system: c-myc mRNA; test: Inhibition of expression of c-myc in MOPC 315 cells (Northern blot); assay type: cell-based, murine; settings: either 1 or 5 micromolar, 4 hours at 37° C.
Description: MOPC 315 cells were maintained in RPMI 1640 culture media containing 10% fetal calf serum at 37° C. with 7% CO2. Log phase MOPC 315 cells were harvested by centrifugation (250×g for 19 minutes at 23° C.) and resuspended at a density of 5×10^6 /ml in HB101 serum-free medium (DuPont). One ml aliquots of this cell suspension were incubated in the presence of oligonucleotide for 4 hours at 37° C. and 7% CO2. Additional one ml aliquots were incubated concommitantly without oligonucleotide. Cells from each group were then collected by centrifugation. Total cellular RNA was prepared as described by Chirgwin et al., Biochemistry 18, 5294-5299 (1979), and analyzed by Northern blots as described in Example 7. The filters were probed with an oligonucleotide complementary to c-myc mRNA labeled with ^32 P using polynucleotide kinase and γ^32 P-ATP as in previous examples.

[3] = test system: mouse α-globin mRNA; test: Cleavage of globin mRNA by E. coli RNaseH after hybridization with oligonucleotide (Northern blot); assay type: biochemical; settings: 1.1 nanomoles oligonucleotide in 22 microliters, 2 units E. coli RNaseH, 30 minutes at 37° C.
Description: Mouse globin mRNA was isolated from mice rendered anemic by treatment with phenylhydrazine as described in Example 1. Three oligonucleotides were compared in this study; MA-15, the derivative of MA-15 utilized in Examples 5 and 6 in which the 3'-terminal internucleotide link is modified as a trichlorodimethylethyl phosphotriester (MA-15-TCDM), and a derivative further modified at the 5'-terminal OH group with naphthylisocyanate (NPH-MA-15-TCDM). Mouse globin mRNA (2 micrograms) was added to 1.1 nanomoles of the oligonucleotide in a final volume of 22 microliters containing 10 mM tris-HCl buffer at pH 7.5, 5 mM MgCl2, 25 mM NaCl, and 1 mM dithiothreitol. The reactions were initiated by the addition of 2 units of E. coli RNaseH, and were allowed to proceed for 30 minutes at 37° C. The reactions were stopped by extraction of the samples with a 1:1 mixture of phenol and chloroform. The mRNA species remaining after digestion with RNaseH were isolated by precipitation with ethanol and analyzed on Northern blots.
The RNA samples were reacted with 1 M glyoxal in a 1:1 (volume/volume) mixture of 10 mM sodium phosphate buffer at pH 6.5 and dimethylsulfoxide for 1 hour at 50° C., and then electrophoresed on a 1.5% agarose gel. The RNAs were transferred from the gel to a Gene Screen Plus filter (DuPont-NEN) by capillary blotting according to the method described by the manufacturer. […]

[4] = assay type: in vitro ADME, human; settings: 37° C., 15 minutes to 2 hours, heparinized blood
Description: The oligonucleotide MA-15 described in Example 1 was radioactively labeled with ^32 P at the 5'-end of the molecule using γ^32 P-adenosine triphosphate (γ ^32 P-ATP, Amersham) and T4 polynucleotide kinase (Bethesda Research Laboratories):
where the asterisk represents the radiolabel. Separately, a radiolabeled derivative was prepared in which ^32 P was introduced at the 3'most internucleotide link using α^32 P-deoxycytidine triphosphate (dCTP) and DNA polymerase I (Bethesda Research Laboratories):
The reaction catalyzed by DNA polymerase I is between 5'-GAGCACCATGGTTT and dCTP and requires the complementary DNA strand as a template. A 50 fold excess of unlabeled MA-15 was added after the reaction to insure that the labeled derivative is single stranded. These procedures are standard methods for radiolabeling DNA fragments, see for example, Maniatis, T., Fritsch, E. F., and Sambrook, J., Molecular Cloning: A Laboratory Manual, Cold Spring Harbor Laboratory, New York, pp. 114-115 and 122-126, 1982, which is incorporated herein by reference. […]
The modified oligonucleotide was labeled with ^32 P at the 5'-terminal OH group using γ^32 P-ATP and T4 polynucleotide kinase as described in Example 3. […] Aliquots were removed at various times and analyzed by polyacrylamide gel electrophoresis. […]

[5] = Degradation of oligonucleotide in K562 cell extracts; assay type: in vitro ADME, human
Description: The purpose of these studies was to determine the pathways by which oligonucleotides are degraded by nucleases present within human cells. Radiolabeled derivatives of MA-15 were prepared as in Example 3. Degradation of the oligonucleotide was studied in extracts prepared from the human erythroleukemia cell line K562. The K562 cell line was first isolated by Lozzio, C. B., and Lozzio, B. B., Blood (1975) 45, 321-334, and has been studied extensively as a model for red cell differentiation. The cells were suspended in 10 mM tris buffer pH 7.4 with 5 mM MgCl2, 1 mM CaCl2, 100 mM NaCl, and 0.1% Triton® X-100 (polyethylene glycol 4-isooctylphenyl ether, and homogenized with a cold motor driven teflon pestle homogenizer for 30 seconds. Cell membranes and organelles were further disrupted by sonication by five 15 second bursts using a Biosonic sonifier set on full power. Remaining cell debris was removed from the extracts by centrifugation for 5 minutes at 12,000×g.
The radiolabeled oligonucleotide was incubated in K562 cell extracts under the same conditions as decribed in Example 3 and the degradation products analyzed by polyacrylamide gel electrophoresis. […] The half-life for cleavage of the 3'-terminal internucleotide link was 2 minutes. […] The half-life for cleavage of the 5'-terminal nucleotide unit from the chain by this mechanism was 20 minutes.
The derivative of MA-15 described in Example 5 in which the 3'-terminal internucleotide link was modified as a 2,2,2-trichloro-1,1-dimethylethyl phosphotriester was also used in this study. Extracts from K562 cells were prepared as in Example 4. The modified oligonucleotide was incubated in the cell extracts at 37° C. Aliquots were removed at various times, and the products of degradation were analyzed by polyacrylamide gel electrophoresis.

[6] = test system: β-globin mRNA; test: In vitro translation in rabbit reticulocyte lysate, β-globin synthesis; assay type: biochemical, mouse; settings: in words; MA-15 complementary to 12 of 15 residues of β-globin mRNA
Description: as §1, with “Reactions were carried out in both the presence and absence of poly rA/oligo dT (500 ug/ml).” left out

Substance | inhibition of translation of the targeted mRNA [1] | % Inhibition Of Globin Synthesis, +poly rA/oligo dT [1] | % Inhibition Of Globin Synthesis, -poly rA/oligo dT [1] | effect on c-myc mRNA levels [2] | decrease in intensity of the α-globin mRNA band (RNaseH cleavage) [3] | pathway of degradation in human blood [4] | degradation by 5'- to 3'-exonucleolytic activity in K562 cell extracts ([5]; K562 cell extracts) | primary pathway of degradation in K562 cell extracts ([5]; K562 cell extracts) | rate of degradation compared with that in blood ([5]; K562 cell extracts vs blood) | half-life for cleavage of the 3'-terminal internucleotide link ([5]; K562 cell extracts, 3' to 5' exonucleolytic activity, 37° C.) | half-life for cleavage of the 5'-terminal nucleotide unit from the chain ([5]; K562 cell extracts, 5'- to 3'-exonucleolytic activity, 37° C.) | inhibition of β-globin synthesis [6]
5'-TGTCCAAGTGATTCAGGCCATCGTT [CODMB-25] | very effectively inhibited translation of the targeted mRNA | 5% | 61% | – | – | – | – | – | – | – | – | –
5'-T CCCTTCATCCCGAAGTT C (antisense TCCCTTCATCCCGAAGTTC; TCDM group attached, position not given here) [anti-albumin oligonucleotide, oligonucleotide complementary to human albumin mRNA; ( ) again represents the TCDM group] | – | – | – | no effect | – | – | – | – | – | – | – | –
5'-GAGCACCATGGTTTC [MA-15] | very effectively inhibited translation of the targeted mRNA | 3% | 51% | – | marked decrease in the intensity of the band for α-globin mRNA | sequential exonucleolytic cleavage of the strand from the 3'-toward the 5'-end of the chain | A slower 5'- to 3'-exonucleolytic activity was also observed | 3' to 5' exonucleolytic activity | much faster than that in blood | 2 min | 20 min | inhibits β-globin synthesis to some extent
